Measured values published in patent US20100184675A1, “USE OF GLUCAGON (1-29) ALONE OR IN COMBINATION WITH NEUROPEPTIDE W30 AS A THERAPEUTIC AGENT” (priority 2007, published 2010).
Ends that are not written are not given here.

Test system: drug-resistant Mycobacterium tuberculosis
Assay: Mycobacterium tuberculosis assay
Type: cell-based
Settings: 10 micrograms per ml; seven days; strain resistant to PAS, streptomycin, INH; combination 0.95:1.05 mole and all other molar ratios from 1:100 to 100:1

Substance: Trp-Tyr-Lys-His-Val-Ala-Ser-Pro-Arg-Tyr-His-Thr-Val-Gly-Arg-Ala-Ala-Gly-Leu-Leu-Met-Gly-Leu-Arg-Arg-Ser-Pro-Tyr-Leu-Trp-OH (WYKHVASPRYHTVGRAAGLLMGLRRSPYLW-OH) [Peptide 2, Neuropeptide W-30, commercially available known peptide]
- inhibition of the growth of Mycobacterium tuberculosis: 100%
